Series [1] addresses T1, PXR (Homo sapiens, UniProt O75469).
T1 sequence (O75469 107-434): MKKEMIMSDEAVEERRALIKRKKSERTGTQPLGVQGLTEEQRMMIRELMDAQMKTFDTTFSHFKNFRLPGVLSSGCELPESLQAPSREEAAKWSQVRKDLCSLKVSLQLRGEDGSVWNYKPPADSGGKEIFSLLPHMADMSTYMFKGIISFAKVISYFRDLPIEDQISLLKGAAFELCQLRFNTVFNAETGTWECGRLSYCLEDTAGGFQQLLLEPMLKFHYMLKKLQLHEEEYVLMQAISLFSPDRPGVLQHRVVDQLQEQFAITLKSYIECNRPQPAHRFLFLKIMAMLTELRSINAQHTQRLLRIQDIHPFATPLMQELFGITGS
As to the kind of experiment: Medium-throughput screening, HG5LN GAL4-PXR-LBD reporter cell line (HeLa). The settings on record: HG5LN GAL4-PXR reporter cells; 3 µM SR12813 = 100% activation; determined prior to the screening. From the text: Using medium-throughput ligand screening and a mammalian (HeLa) cell-based activation assay (HG5LN GAL4-PXR-LBD reporter cell line)[14][15], we monitored the agonistic potential of 40 chemicals either alone or in binary mixtures (Supplementary Table 1). […] We next examined the effect of TNC, EE2, and their combination in human liver (HepG2) and colon (LS174T) carcinoma cell lines containing the full-length PXR and the CYP3A4-XREM luciferase reporter plasmids.
LS174T stable human PXR transfectant (LS-PXR2) and the corresponding control cells (LS-CTRL), HEPG2-PXR and HG5LN GAL4-PXR reporter cell lines were previously described. […] HEPG2-PXR was obtained after stable transfection of the same PXR expressing plasmid and the XREM-CYP3A4 pGL3b reporter plasmid. […] Finally, LS174T-PXR reporter cell line was established by stable transfection of the CYP3A4-luciferase-hygromycine plasmid in the LS-PXR2 cell line. All cell lines were grown in DMEM medium (Invitrogen) supplemented with 10% fetal calf serum, L-glutamine, and antibiotics (Invitrogen).
HG5LN GAL4-PXR reporter cell lines (100 μl) were seeded at a density of 25,000 cells per well in 96-well white opaque tissue culture plates (Greiner CellStar). […] Then the ligand to be tested in combination with the different ligands was added (50 μl). Cells were incubated at 37 °C for 16 h. At the end of the incubation period, culture medium was replaced with medium containing 3.10^−4 M luciferin. Luciferase activity was measured for 2 s in intact living cells using a plate reader (PerkinElmer Luminometer).
Supplementary Table 1 | Compounds used for screening
#For each ligand, the concentration used was determined prior to the screening experiment. It represents the dose at which the
synthetized in the laboratory4. **Compounds purchased from Tocris Biosciences. ***Compounds purchased by Sigma
Aldrich.****Gift from Sanofi Aventis. All compound stock solutions were prepared at 10 mM in DMSO.

Series [2] has as its target T1, PXR. Description: Transactivation assay (dose-response), HG5LN GAL4-PXR-LBD reporter cells. The settings on record: summary of cell-based assays. Here is the method: Compounds to be tested were added 24 h later, and cells were incubated at 37 °C for 16 h. […] EC50 values were measured using GraphPad Prism (GraphPad Software Inc.).
Another series has as its target T2, PXR LBD (Homo sapiens, UniProt O75469).
T2 construct: Purified PXR(130-434)-SRC-1 was dialysed overnight; His6 (N); made in house; host or cells: E. coli BL21(DE3)
T2 sequence (O75469 with tags, fused parts or gaps limits assumed): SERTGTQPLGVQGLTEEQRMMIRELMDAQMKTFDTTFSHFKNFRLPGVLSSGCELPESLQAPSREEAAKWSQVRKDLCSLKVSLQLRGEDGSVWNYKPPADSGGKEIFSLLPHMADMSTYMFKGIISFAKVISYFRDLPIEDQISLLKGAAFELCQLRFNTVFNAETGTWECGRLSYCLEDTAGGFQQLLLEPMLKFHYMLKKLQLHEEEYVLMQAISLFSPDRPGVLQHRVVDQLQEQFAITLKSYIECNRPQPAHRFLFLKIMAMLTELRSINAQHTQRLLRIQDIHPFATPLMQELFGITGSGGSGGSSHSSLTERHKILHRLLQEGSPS
Description: Non-denaturing ESI-MS of ligand binding. Here is the method:
Figure 4 Simultaneous binding of EE2 and TNC to PXR. Mass spectrometry analysis. Non-denaturing ESI-MS was used to characterize PXR LBD (10 μM) in (a) the unliganded form or in the presence of (b) EE2 (20 μM), (c) TNC (20 μM), or (d) a mixture of EE2 (20 μM) and TNC (20 μM). *, acetate adducts; $, fortuitous binders 254-324 Da; , fortuitous binder 254 Da; #, non-specific EE2 adducts. TEXT PRINTED IN THE PICTURE: (b) no label printed: 296.4 Da | (c) no label printed: 444.2 Da | (d) no label printed: 740.6 Da DOUBTS OF THE COPYIST ABOUT THIS PICTURE: Panels b, c and d: the drawn structures have no label of their own. The masses in brackets are printed with no measure word and are taken as molecular masses. / Panel d: 740.6 Da is printed under two drawn structures joined by '+', so it belongs to the pair, not to a single substance. / The peak labels of the mass spectra were left out as spectrum annotations of the protein and its complexes: PXR 38,212.5 Da, Theoretical mass 38,217.7 Da, Δ 297 Da, Δ 445 Da and Δ 740 Da.
Mass spectrometry experiments were carried out on an electrospray time-of-flight mass spectrometer (LCT, Waters) equipped with an automated chip-based nanoESI device (Triversa Nanomate, Advion Biosciences). External calibration was done in the positive ion mode over the mass range m/z 500–5,000 using the multiply charged ions produced by 0.5 μM horse heart myoglobin solution diluted in water/acetonitrile 50/50 mixture acidified with 0.5% (v/v) formic acid. Purified PXR(130-434)-SRC1 was buffer exchanged against 50 mM ammonium acetate (NH4Ac), pH 8.0 using NAP5 desalting columns (illustra NAP-5 Columns, GE Healthcare Life Sciences). Protein concentration was determined spectrophotometrically (ɛ280 nm=26,210 l mol^−1 cm^−1). […] Protein concentration was set to 10 μM and different compound concentrations ranging from 20 to 80 μM were tested. Incubations lasted 5 min at 18 °C. Mass spectra were recorded using low cone voltage (Vc, 20 V) and elevated interface pressure (Pi, 5 mbar).

Series [3] deals with T3, fluorescein-labelled NR interaction domain (NID) of SRC-1 (residues 570-780) (UniProt Q15788 570-780, fluorescein at the C-terminus (cys-fluor added on intein cleavage)).
T3 chain: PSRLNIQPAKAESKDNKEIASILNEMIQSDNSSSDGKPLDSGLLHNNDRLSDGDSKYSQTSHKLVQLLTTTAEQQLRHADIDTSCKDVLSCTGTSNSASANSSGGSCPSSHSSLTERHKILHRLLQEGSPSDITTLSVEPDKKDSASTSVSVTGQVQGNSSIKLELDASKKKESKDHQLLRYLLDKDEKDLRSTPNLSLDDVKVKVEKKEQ
As to the kind of experiment: FP; TNC.

The target in series [4] is T3, fluorescein-labelled NR interaction …. As to the kind of experiment: FP; SR12813.
For series [5] the target is unchanged. Description: FP; EE2.
The target is the same in series [6]. As to the kind of experiment: FP; apo (no ligand).
Series [7] has the same target. As to the kind of experiment: FP; TNC+EE2.

As for `Clc1ccc(C(c2ccccc2Cl)C(Cl)(Cl)Cl)cc1` (stereo not shown) [2,4’DDT], the Concentration: dose at which the compound alone induces ≈30% of the luciferase expression obtained with 3 µM SR12813 on PXR [1] was 3000 nM.

Regarding `Clc1ccc(C(c2ccc(Cl)cc2)C(Cl)(Cl)Cl)cc1` [4,4’DDT], the Concentration: dose at which the compound alone induces ≈30% of the luciferase expression obtained with 3 µM SR12813 on PXR [1] was found to be 3000 nM.

For `Cc1ccc(/C=C2/C(=O)C3(C)CCC2C3(C)C)cc1` (stereo not shown) [4-methylbenzylidene camphor], the Concentration: dose at which the compound alone induces ≈30% of the luciferase expression obtained with 3 µM SR12813 at PXR [1] worked out at 1000 nM.

As to `Cc1cc(C(C)(C)C)ccc1O` [4-tert-butyl-2-methylphenol], at PXR [1], the Concentration: dose at which the compound alone induces ≈30% of the luciferase expression obtained with 3 µM SR12813 worked out at 1000 nM.

For the molecule `CCCCOC(=O)c1ccccc1C(=O)OCc1ccccc1` [Benzyl butyl phthalate], the Concentration: dose at which the compound alone induces ≈30% of the luciferase expression obtained with 3 µM SR12813 on PXR [1] turned out to be 1000 nM.

As for `Clc1ccccc1C(c1ccccc1)(c1ccccc1)n1ccnc1` [Clotrimazol, reference compound], at PXR [1], the “Concentration: dose at which the compound alone induces ≈30% of the luciferase expression obtained with 3 µM SR12813” value is reported as 300 nM.

Regarding `CC1(C)C(C=C(Cl)Cl)C1C(=O)OC(C#N)c1cccc(Oc2ccccc2)c1` (stereo not shown) [Cypermethrine], at PXR [1], the Concentration: dose at which the compound alone induces ≈30% of the luciferase expression obtained with 3 µM SR12813 was 3000 nM.

For the molecule `C#C[C@]1(O)CC[C@H]2[C@@H]3CCc4cc(O)ccc4[C@H]3CC[C@@]21C` [EE2, 17α-ethinylestradiol, reference compound], the “PXR agonism, cell-based assays as a whole” value on PXR [2] was “poor PXR agonists”. In addition, the Complex detected on PXR LBD (PXR 10 μM, 2 molar equivalent excess of compound (20 μM)) is recorded as about 70%. In addition, at PXR LBD (native ESI-MS), the “Range of affinity for PXR” value is “low micromolar range”.

Turning to `N#Cc1nn(-c2c(Cl)cc(C(F)(F)F)cc2Cl)c(N)c1S(=O)(=O)C(F)(F)F` [Fipronil sulfone], on PXR [1], the Concentration: dose at which the compound alone induces ≈30% of the luciferase expression obtained with 3 µM SR12813 came out at 3000 nM.

As to `CO[C@H]1/C=C/O[C@@]2(C)Oc3c(C)c(O)c4c(O)c(c(/C=N/N5CCN(C)CC5)c(O)c4c3C2=O)NC(=O)/C(C)=C\C=C\[C@H](C)[C@H](O)[C@@H](C)[C@@H](O)[C@@H](C)[C@H](OC(C)=O)[C@@H]1C` [Rifampicin, reference compound], the “Concentration: dose at which the compound alone induces ≈30% of the luciferase expression obtained with 3 µM SR12813” value on PXR [1] amounted to 300 nM.

On to `CC(=O)O[C@H]1C(=O)[C@@]2(C)[C@H]([C@H](OC(=O)c3ccccc3)[C@]3(O)C[C@H](OC(=O)[C@H](O)[C@@H](NC(=O)c4ccccc4)c4ccccc4)C(C)=C1C3(C)C)[C@]1(OC(C)=O)CO[C@@H]1C[C@@H]2O` [TAXOL, reference compound], for which the “Concentration: dose at which the compound alone induces ≈30% of the luciferase expression obtained with 3 µM SR12813” value at PXR [1] is 30 nM.

`Clc1cnc(Oc2ccc(Oc3ncc(Cl)cc3Cl)cc2)c(Cl)c1` [TCPOBOP, reference compound]: the Concentration: dose at which the compound alone induces ≈30% of the luciferase expression obtained with 3 µM SR12813 at PXR [1] was found to be 1000 nM.

On to `C[C@H]1CCCC(=O)CCC/C=C/c2cc(O)cc(O)c2C(=O)O1` [Zearalenone], for which the Concentration: dose at which the compound alone induces ≈30% of the luciferase expression obtained with 3 µM SR12813 at PXR [1] amounted to 1000 nM.

In the case of -zearalanol, the Concentration: dose at which the compound alone induces ≈30% of the luciferase expression obtained with 3 µM SR12813 on PXR [1] amounted to 1000 nM.

Take -zearalenol: on PXR [1], the “Concentration: dose at which the compound alone induces ≈30% of the luciferase expression obtained with 3 µM SR12813” value is reported as 300 nM.

B1: PXR/RXR LBD heterodimer (complex)
chain 1: SERTGTQPLGVQGLTEEQRMMIRELMDAQMKTFDTTFSHFKNFRLPGVLSSGCELPESLQAPSREEAAKWSQVRKDLCSLKVSLQLRGEDGSVWNYKPPADSGGKEIFSLLPHMADMSTYMFKGIISFAKVISYFRDLPIEDQISLLKGAAFELCQLRFNTVFNAETGTWECGRLSYCLEDTAGGFQQLLLEPMLKFHYMLKKLQLHEEEYVLMQAISLFSPDRPGVLQHRVVDQLQEQFAITLKSYIECNRPQPAHRFLFLKIMAMLTELRSINAQHTQRLLRIQDIHPFATPLMQELFGITGS
chain 2: TSSANEDMPVERILEAELAVEPKTETYVEANMGLNPSSPNDPVTNICQAADKQLFTLVEWAKRIPHFSELPLDDQVILLRAGWNELLIASFSHRSIAVKDGILLATGLHVHRNSAHSAGVGAIFDRVLTELVSKMRDMQMDKTELGCLRAIVLFNPDSKGLSNPAEVEALREKVYASLEAYCKHKYPEQPGRFAKLLLRLPALRSIGLKCLEHLFFFKLIGDTPIDTFLMEMLEAPHQMT
The term Kd denotes a measure of binding affinity in units of concentration. Read a high Kd as weaker binding. As for B1, the dissociation constant Kd in series [3] was determined as 450 nM; in series [4], 93 nM; in series [5], 272 nM; in series [6], 368 nM; in series [7], 84.5 nM.

Values taken from article PMC4569708, “Synergistic activation of human pregnane X receptor by binary cocktails of pharmaceutical and environmental compounds” (Nature Communications, 2015).
